Where a SMILES comes first, the peptide text is derived from it.
SMILES | logP
CCOc1cccc(NC(=O)OCCN2CCCCC2)c1 | 3.77
CCCCNc1ccncc1S(=O)(=O)NC(=NC#N)NC(C)C | 1.05
COC(=O)c1[nH]cc(-c2ccccc2C)c1N1CCOCC1 | 2.8
CCNC(=NC#N)NS(=O)(=O)c1cnccc1NC1CCCCCC1 | 1.53
CC(=O)OC1C(C)OC(n2cc(F)c(=O)[nH]c2=O)C1OC(C)=O (centres undefined) | -0.02
CCC(C)C(N)C(=O)NC(Cc1ccc(O)cc1)C(=O)NC(C(=O)O)C(C)C (stereo not drawn) (H-Ile-Tyr-Val-OH; configuration not given here) | -1.77
CCCCOCCCNc1ncnc2c1ncn2C1OC(CO)C(O)C1O (centres undefined) | 1.3
CCCCCI | 3.62
O=CC(=C(Cl)C(=O)O)C(Cl)Cl | 1.13
Cc1c(C)c2ccc3occc3c2oc1=O | 2.9
Cc1ccccc1Nc1ccncc1S(=O)(=O)NC(=O)NC(C)C | 3.91
Cn1ccnc1CC1COc2ccccc2O1 (centres undefined) | 1.93
CSC(=S)N1CCCCC1 | 1.7
CCCN(CCC)C1CCc2c(O)cccc2C1 (centres undefined) | 3.58
CSc1cnc(C2=NC(C)(C(C)C)C(=O)N2)c(C(=O)O)c1 (centres undefined) | 0.75
NC1=NC(C2OCCc3ccccc32)CS1 (centres undefined) | 1.79
CCCCCCCCCCCCNCCO | 4.51
C=CCC(C)(C(=O)OCC)S(=O)(=O)c1ccc([N+](=O)[O-])cc1 (centres undefined) | 2.3
OCC1OC(n2cnc3c(Nc4ccccc4)ncnc32)C(O)C1O (centres undefined) | 1.28
COc1cc2ncnc(Nc3cccc(I)c3)c2cc1OC | 3.65
CC(C)(C)n1cc(C(=O)O)c(=O)c2cc(F)c(N3CC4CC3CN4)nc21 (centres undefined) | -0.41
CC(=O)Nc1ccc(/C=C/c2n[nH]c(=O)cc2C)cc1 | 1.27
COC(=O)c1c(N2CCOCC2)c(-c2ccc(Cl)cc2)cn1C(=O)N1CCOCC1 | 3.1
CC(C)CCNc1ncnc2c1ncn2C1OC(CO)C(O)C1O (centres undefined) | 1.6

SMILES | logP
COCC(O)Cn1c([N+](=O)[O-])nc(Br)c1Br (centres undefined) | 1.02
COC(=O)C(C)NP(=O)(OCC1C=CC(n2cc(C)c(=O)[nH]c2=O)O1)Oc1ccc([N+](=O)[O-])cc1 (centres undefined) | 0.9
NC1=NCC(CN2CCC(c3ccccc3)CC2)O1 (centres undefined) | 1.96
CCOC(=O)CC(C(=O)OC)S(=O)(=O)c1ccc([N+](=O)[O-])cc1 (centres undefined) | 1.4
CC(C)CC(NC(=O)CNC(=O)C(NC(=O)C(Cc1ccccc1)NC(=O)C(N)C(C)C)C(C)C)C(=O)O (centres undefined) (H-VFVGL-OH; configuration not given here) | -0.97
Cc1cccc(Cc2cnc[nH]2)c1C | 2.68
O=C1N=C(N2CCOCC2)CN1Cc1ccc(I)cc1 | 1.7
CCCCCNC(=O)N1C(=O)N(C)CC1O (centres undefined) | 1.75
CCN(CC)c1ccc(-n2c(C(F)(F)F)nn(C)c2=S)cn1 | 3.14
OCC1OC(Oc2ccc3cc(Br)ccc3c2)C(O)C(O)C1O (centres undefined) | 1.97
CC(NC(=O)C(N)Cc1c[nH]c2ccccc12)C(=O)NC(C(N)=O)C(C)C (stereo not drawn) (H-Trp-Ala-Val-NH2; configuration not given here) | 0.4
c1ccc(Nc2nnc(Cn3ccc4ccccc43)s2)cc1 | 3.47
CC=C(C)C1(C)CC(O)=C(C(CCC)=NOCC)C(=O)O1 (centres undefined) | 3.4
CCOP(=O)(OCC)C(C)(C)[N+]([O-])=Cc1ccc([N+](=O)[O-])cc1 | 1.43
C[C@@H]1C[C@H]2[C@@H]3CCC4=CC(=O)C=C[C@]4(C)[C@@]3(Cl)[C@@H](O)C[C@]2(C)[C@@]1(OC(=O)c1ccco1)C(=O)CCl | 3.9
Cc1ccc(Nc2ccncc2S(=O)(=O)NC(=NC#N)NC(C)C)cc1 | 1.91
CC(C)C1(C)N=C(c2ncc3ccccc3c2C(=O)O)NC1=O (centres undefined) | 1.81
On1nnc2ccccc21 | 0.69
Cc1nc2c3c(c(C(=O)N(C)C)cn2c1CO)CCC(c1ccccc1)O3 (centres undefined) | 1.72
CCOC(=O)C(C)c1ccc2cc(OC)ccc2c1 (centres undefined) | 3.51
CC(C)CC(N)C(=O)NC(CC(C)C)C(=O)NCC(=O)NC(Cc1ccccc1)C(=O)O (centres undefined) (H-LLGF-OH; configuration not given here) | -0.42
NC(=O)c1cccc(Cn2cccn2)c1 | 0.71
OCC1OC(n2cnc3c(NCc4ccccc4)ncnc32)C(O)C1O (centres undefined) | 1.23
Nc1nnnn1-c1ccc(Cl)cc1 | 1.41

SMILES | logP
CC(=O)OC(C)(C)C1CCC2(C)CCCC(=O)C2C1 (centres undefined) | 3.2
COc1ccc2c(c1)COP(=O)(OCC1C=CC(n3cc(C)c(=O)[nH]c3=O)O1)O2 (centres undefined) | 0.36
CCCCC(=O)NCCCCCN(O)C(=O)CCC(=O)NCCCCCN(O)C(=O)CCC(=O)NCCCCCN(O)C(C)=O | 0.88
CCC1OC(Cn2cncn2)(c2ccc(Cl)cc2Cl)OC1C (centres undefined) | 3.41
CN(C)c1cc[n+]([O-])cc1 | -0.9
CC(C)CC(N)C(=O)NC(CC(C)C)C(=O)NC(C(=O)NC(Cc1ccccc1)C(=O)O)C(C)C (centres undefined) (H-LLVF-OH; configuration not given here) | -0.25
CCOC(=O)Nc1ccc2cc3ccc4c(c3nc2c1)COC(=O)N4 | 2
C[C@]12CC[C@@H](O)C[C@@H]1CC[C@@H]1[C@@H]2CC[C@]2(C)[C@@H](O)CC[C@@H]12 | 4.16
OCCCCNc1[nH]cnc2ncnc1-2 | 0.32
CC(C)C(NC(=O)C(N)Cc1ccccc1)C(=O)NC(Cc1ccc(O)cc1)C(=O)NC(Cc1ccccc1)C(=O)O (centres undefined) (H-FVYF-OH; configuration not given here) | -0.32
Cc1oc2nc3oc(=O)ccc3cc2c1C | 1.97
c1cc2cc3c(cc2cn1)OCO3 | 1.75
Fc1cncnc1 | -0.03
CC1(C(Cl)Cl)C2CC(Cl)(Cl)C1(C(Cl)Cl)CC2(Cl)Cl (centres undefined) | 5.9
Cc1oc2nc3oc(=O)c(C)c(C)c3cc2c1C | 2.71
Nc1nnnn1-c1ccc(Cl)c(Cl)c1 | 2.06
CC(C)CC(N)C(=O)NC(CC(C)C)C(=O)NC(CC(C)C)C(=O)NC(Cc1ccccc1)C(=O)O (centres undefined) (H-LLLF-OH; configuration not given here) | 0.24
O=c1cc(-c2ccccc2)[nH]n1-c1ccc(Cl)cc1 | 2.6
CC(C)(C)Nc1nc(N)nc(O)n1 | 2.07
CC(C)(C)[N+]([O-])=Cc1ccc([N+](=O)[O-])cc1 | 1.4
CC(C)C[C@H](NC(=O)[C@@H](N)CC(C)C)C(=O)O | -1.47
CCCCCCCCCCCCN=C=S | 7.13
CCN1CCCC1CNC(=O)c1c(OC)ccc(OC)c1O (centres undefined) | 2.82
Clc1cc2c(oc3c(Cl)c(Cl)ccc32)c(Cl)c1Cl | 6.47

SMILES | logP
O=C(NS(=O)(=O)c1cnccc1NC1CCCCCCC1)N1CCCCC1 | 4.55
CCC(C)C(NC(=O)C(N)Cc1ccccc1)C(=O)NC(C(=O)O)C(C)O (stereo not drawn) (H-Phe-Ile-Thr-OH; configuration not given here) | -1.95
CON(C)C(=O)Nc1ccc(OC(C)CC2CCCCC2)cc1 (centres undefined) | 4.51
CCCC(=O)OCOC(=O)N(C)N=Nc1ccc(C(=O)OCC)cc1 | 4.51
CCOc1cc2ncnc(Nc3cc(F)cc(C(F)(F)F)c3)c2cc1OCC | 5.49
NC1=NCC(COc2ccccc2[N+](=O)[O-])O1 (centres undefined) | 0.8
CNC1=NS(=O)N=C1NCCSCc1ccc(CN(C)C)o1 (centres undefined) | 0.89
COC(=O)C(=Cc1ccccc1)S(=O)(=O)c1ccc([N+](=O)[O-])cc1 | 2.9
CCOc1cc2ncnc(Nc3ccccc3F)c2cc1OCC | 3.02
Cc1oc2ccc3c(C)cc(=O)oc3c2c1C | 3.28
CC1CC2C3CCC4=CC(=O)C=CC4(C)C3(F)C(O)CC2(C)C1(O)C(=O)COC(=O)CC1CCCCC1 (centres undefined) | 4.95
O=C(O)CCCON=C(c1ccccc1)c1cncnc1 | 2.2
CCOc1ccc(NC(=O)OCCN2CCCCC2)cc1 | 3.41
COc1cccc(OCC2CN=C(N)O2)c1 (centres undefined) | 1.34
COC(=O)c1c(N2CCOCC2)c(-c2ccc(Cl)cc2)cn1C(=O)c1ccccc1 | 5.5
CCCCNC(C)CO (centres undefined) | 1.19
O=c1cc(CSc2nc3ccccc3s2)occ1O | 2.08
Brc1c2ccccc2cc2ccccc12 | 5.37
OCCN1CCN(CCn2nc3ccccc3n2)CC1 | 0.43
CCNC(=S)NN=C(c1cccc([N+](=O)[O-])c1)c1ccccn1 | 2.53
COc1cc(OC)nc(Oc2cccc(Cl)c2C(=O)O)n1 | 2.23
Cc1nc2ccccc2c(=O)n1CC(=O)NCc1ccco1 | 1.24
NC1=NCC(CN2CCN(c3ccccc3F)CC2)O1 (centres undefined) | 1.06
OCCCCCNc1[nH]cnc2ncnc1-2 | 0.72

SMILES | logP
CC[C@H](C)C(=O)O[C@H]1C[C@H](O)C=C2C=C[C@H](C)[C@H](CC[C@@H](O)C[C@@H](O)CC(=O)O)[C@H]21 | 2.18
O=C(O)CCCCON=C(c1cccc(C(F)(F)F)c1)c1cnccn1 | 3.26
CCC(C)C(NC(=O)C1CCCN1)C(=O)O (stereo not drawn) (H-Pro-Ile-OH; configuration not given here) | -2.56
NC(=O)Cc1ccc(O)cc1 | -0.09
CCCCNC(=N)NC(=O)c1ccc(Cl)cc1 | 3.08
O=C1C(O)N=C(c2ccccc2)c2cc([N+](=O)[O-])ccc2N1CCO (centres undefined) | 0.72
CC(C)CC(N)C(=O)NC(Cc1ccc(O)cc1)C(=O)O (centres undefined) | -1.94
CCOc1ccccc1CNc1[nH]cnc2ncnc1-2 | 2.72
CCCNC(=O)c1cccc2nc(N)nc(N)c12 | 0.83
CC(=O)OC(C)(C)C1CCC2(C)CCCC(C)(O)C2C1 (centres undefined) | 3.8
Cc1cc2c(C)c3ccc(=O)oc3cc2o1 | 2.84
Cc1ccc(CO)c(C=NNC(=O)c2cccs2)c1O | 3.03
COc1cc(S(C)=O)ccc1-c1cn2cc(N)cnc2n1 (centres undefined) | 0.37
CC1CCC(C)N1C(=O)Nc1ccccc1 (centres undefined) | 2.33
O=c1ssc(-c2ccccc2)c1-c1ccccc1 | 4.07
COC(=O)C(C)NP(=O)(OCC1C=CC(n2cc(C)c(=O)[nH]c2=O)O1)Oc1ccc(Cl)cc1 (centres undefined) | 1.43
CCC(C)C(NC(=O)CNC(=O)C(C)NC(=O)CNC(=O)C(N)Cc1ccccc1)C(=O)O (centres undefined) (H-FGAGI-OH; configuration not given here) | -1.87
CCOCCCNc1ncnc2c1ncn2C1OC(CO)C(O)C1O (centres undefined) | 0.22
CC(=O)OC(C)(C)C1CCC2(C)CCCC(O)C2C1 (centres undefined) | 3.62
Cc1nc2c3c(c(C(=O)O)cn2c1C)CCC(c1ccccc1)O3 (centres undefined) | 4.6
O=C1C=C(N2CCCC2)CN1c1ccc(Cl)cc1 | 2.6
COc1ccc(CNCC(O)CON=C(C2CC2)C2CC2)c(OC)c1 (centres undefined) | 2.22
O=C1c2cc(Cl)ccc2OCN1CCO[N+](=O)[O-] | 2.3
